Tested on: sugarcane
Assay: Sugarcane flowering inhibition field trials, floral induction rated on UFSCar scale
Assay type: in vivo
Experimental: In order to explore the activity of florpyrauxifen as flowering inhibitor in sugarcane, field studies were carried out. Florpyrauxifen-benzyl was tested at rates from 2 to 20 grams active ingredient per hectare (g ai/ha) and compared to Ethrel® 720 (Bayer), the standard treatment. The flowering inhibition effect was assessed by checking the floral induction in sugarcane through the percentage scale recommended by UFSCar (Federal University of Sao Carlos, Sao Paulo, Brazil).
Four trials were carried out in sugarcane where florpyrauxifen-benzyl (Rinskor®), applied at a rate of 2 to 20 g ai/ha, was compared to ethephon (Ethrel® 720) applied at a rate of 475 g ai/ha. Control plots of untreated sugarcane were also evaluated. Rinskor® and Ethrel® 720 were diluted in water and a single application for each study (backpack sprayer) was performed delivering 50 L of spray solution per ha at the reproductive stage of sugarcane and at a maximum 150 days before harvest. The activity of florpyrauxifen-benzyl as a flowering inhibitor was measured via assessments (Scale of flowering inhibition—see chart 1) performed at 0, 14, 30, 45, 60, 75, 90, 120, 150 days after application, or up to harvest time. The assessments were measured in sugarcane stems, rating the flowering induction according to the UFSCar scale shown below. Significance of treatment effect was evaluated with F-approximate test (α=0.1) and least square means from different treatments were compared with Tukey's test.

## COc1c(Cl)ccc(-c2nc(C(=O)OCc3ccccc3)c(Cl)c(N)c2F)c1F [Rinskor, florpyrauxifen-benzyl]
Table 2, 120 DAA, 5 g ai/ha
  Frequency 1/1 (0%): 0.0%
  Frequency 2/1 (15%): 0.0%
  Frequency 3/1 (30%): 0.0%
  Frequency 4/1 (50%): 0.0%
  Frequency 4/2 (80%): 7.5%
  Frequency 4/3 (90%): 20.0%
  Frequency 4/4 (100%): 72.5%
Table 2, 120 DAA, 7 g ai/ha
  % Referring to Scale: 97.0%
  Frequency 1/1 (0%): 0.0%
  Frequency 2/1 (15%): 0.0%
  Frequency 3/1 (30%): 0.0%
  Frequency 4/1 (50%): 0.0%
  Frequency 4/2 (80%): 5.0%
  Frequency 4/3 (90%): 20.0%
  Frequency 4/4 (100%): 75.0%
Table 2, 120 DAA, 10 g ai/ha
  % Referring to Scale: 96.8%
  Frequency 1/1 (0%): 0.0%
  Frequency 2/1 (15%): 0.0%
  Frequency 3/1 (30%): 0.0%
  Frequency 4/1 (50%): 0.0%
  Frequency 4/2 (80%): 10.0%
  Frequency 4/3 (90%): 12.5%
  Frequency 4/4 (100%): 77.5%
Table 2, 120 DAA, 15 g ai/ha
  % Referring to Scale: 98.5%
  Frequency 1/1 (0%): 0.0%
  Frequency 2/1 (15%): 0.0%
  Frequency 3/1 (30%): 0.0%
  Frequency 4/1 (50%): 0.0%
  Frequency 4/2 (80%): 0.0%
  Frequency 4/3 (90%): 15.0%
  Frequency 4/4 (100%): 85.0%
Table 2, 120 DAA, 20 g ai/ha
  % Referring to Scale: 97.5%
  Frequency 1/1 (0%): 0.0%
  Frequency 2/1 (15%): 0.0%
  Frequency 3/1 (30%): 0.0%
  Frequency 4/1 (50%): 0.0%
  Frequency 4/2 (80%): 7.5%
  Frequency 4/3 (90%): 10.0%
  Frequency 4/4 (100%): 82.5%
Table 3, 90 DAA, 2 g ai/ha
  % Referring to Scale: 0.0%
  Frequency 1/1 (0%): 100.0%
  Frequency 2/1 (15%): 0.0%
  Frequency 3/1 (30%): 0.0%
  Frequency 4/1 (50%): 0.0%
  Frequency 4/2 (80%): 0.0%
  Frequency 4/3 (90%): 0.0%
  Frequency 4/4 (100%): 0.0%
Table 3, 90 DAA, 5 g ai/ha
  % Referring to Scale: 0.0%
  Frequency 1/1 (0%): 100.0%
  Frequency 2/1 (15%): 0.0%
  Frequency 3/1 (30%): 0.0%
  Frequency 4/1 (50%): 0.0%
  Frequency 4/2 (80%): 0.0%
  Frequency 4/3 (90%): 0.0%
  Frequency 4/4 (100%): 0.0%
Table 3, 90 DAA, 7 g ai/ha
  % Referring to Scale: 0.0%
  Frequency 1/1 (0%): 100.0%
  Frequency 2/1 (15%): 0.0%
  Frequency 3/1 (30%): 0.0%
  Frequency 4/1 (50%): 0.0%
  Frequency 4/2 (80%): 0.0%
  Frequency 4/3 (90%): 0.0%
  Frequency 4/4 (100%): 0.0%
Table 3, 90 DAA, 10 g ai/ha
  % Referring to Scale: 0.4%
  Frequency 1/1 (0%): 97.5%
  Frequency 2/1 (15%): 2.5%
  Frequency 3/1 (30%): 0.0%
  Frequency 4/1 (50%): 0.0%
  Frequency 4/2 (80%): 0.0%
  Frequency 4/3 (90%): 0.0%
  Frequency 4/4 (100%): 0.0%
Table 3, 90 DAA, 15 g ai/ha
  % Referring to Scale: 0.0%
  Frequency 1/1 (0%): 100.0%
  Frequency 2/1 (15%): 0.0%
  Frequency 3/1 (30%): 0.0%
  Frequency 4/1 (50%): 0.0%
  Frequency 4/2 (80%): 0.0%
  Frequency 4/3 (90%): 0.0%
  Frequency 4/4 (100%): 0.0%
Table 3, 90 DAA, 20 g ai/ha
  % Referring to Scale: 0.0%
  Frequency 1/1 (0%): 100.0%
  Frequency 2/1 (15%): 0.0%
  Frequency 3/1 (30%): 0.0%
  Frequency 4/1 (50%): 0.0%
  Frequency 4/2 (80%): 0.0%
  Frequency 4/3 (90%): 0.0%
  Frequency 4/4 (100%): 0.0%
Table 3, 120 DAA, 2 g ai/ha
  % Referring to Scale: 5.6%
  Frequency 1/1 (0%): 62.5%
  Frequency 2/1 (15%): 37.5%
  Frequency 3/1 (30%): 0.0%
  Frequency 4/1 (50%): 0.0%
  Frequency 4/2 (80%): 0.0%
  Frequency 4/3 (90%): 0.0%
  Frequency 4/4 (100%): 0.0%
Table 3, 120 DAA, 5 g ai/ha
  % Referring to Scale: 6.9%
  Frequency 1/1 (0%): 62.5%
  Frequency 2/1 (15%): 32.5%
  Frequency 3/1 (30%): 2.5%
  Frequency 4/1 (50%): 2.5%
  Frequency 4/2 (80%): 0.0%
  Frequency 4/3 (90%): 0.0%
  Frequency 4/4 (100%): 0.0%
Table 3, 120 DAA, 7 g ai/ha
  % Referring to Scale: 3.0%
  Frequency 1/1 (0%): 80.0%
  Frequency 2/1 (15%): 20.0%
  Frequency 3/1 (30%): 0.0%
  Frequency 4/1 (50%): 0.0%
  Frequency 4/2 (80%): 0.0%
  Frequency 4/3 (90%): 0.0%
  Frequency 4/4 (100%): 0.0%
Table 3, 120 DAA, 10 g ai/ha
  % Referring to Scale: 4.1%

Source: patent US20240138411A1, “METHOD OF […] OF SUGARCANE” (CORTEVA AGRISCIENCE LLC, priority 2021, published 2024)
